Experimental data: patent US20230391768A2, “IMIDAZOPYRIDINE DERIVATIVES AND AZA-IMIDAZOPYRIDINE DERIVATIVES AS JANUS KINASE 2 INHIBITORS AND USES THEREOF” (Dana-Farber Cancer Institute, Inc., priority 2018, published 2023)

How the values were obtained:
[1] = biological target: JAK2 (Homo sapiens (Human), UniProt O60674); assay: JAK2 Z-Lyte biochemical assay; conditions: commercial JAK2 Z-Lyte assay from Invitrogen
Experimental: The JAK2 Z-Lyte biochemical assay was performed according to manufacturer's instructions (Life Technologies).

[2] = test system: cell lines or patient-derived xenografts from patients with CRLF2-rearranged B-ALL; conditions: cited from earlier work

Chain of JAK2 (O60674 whole entry): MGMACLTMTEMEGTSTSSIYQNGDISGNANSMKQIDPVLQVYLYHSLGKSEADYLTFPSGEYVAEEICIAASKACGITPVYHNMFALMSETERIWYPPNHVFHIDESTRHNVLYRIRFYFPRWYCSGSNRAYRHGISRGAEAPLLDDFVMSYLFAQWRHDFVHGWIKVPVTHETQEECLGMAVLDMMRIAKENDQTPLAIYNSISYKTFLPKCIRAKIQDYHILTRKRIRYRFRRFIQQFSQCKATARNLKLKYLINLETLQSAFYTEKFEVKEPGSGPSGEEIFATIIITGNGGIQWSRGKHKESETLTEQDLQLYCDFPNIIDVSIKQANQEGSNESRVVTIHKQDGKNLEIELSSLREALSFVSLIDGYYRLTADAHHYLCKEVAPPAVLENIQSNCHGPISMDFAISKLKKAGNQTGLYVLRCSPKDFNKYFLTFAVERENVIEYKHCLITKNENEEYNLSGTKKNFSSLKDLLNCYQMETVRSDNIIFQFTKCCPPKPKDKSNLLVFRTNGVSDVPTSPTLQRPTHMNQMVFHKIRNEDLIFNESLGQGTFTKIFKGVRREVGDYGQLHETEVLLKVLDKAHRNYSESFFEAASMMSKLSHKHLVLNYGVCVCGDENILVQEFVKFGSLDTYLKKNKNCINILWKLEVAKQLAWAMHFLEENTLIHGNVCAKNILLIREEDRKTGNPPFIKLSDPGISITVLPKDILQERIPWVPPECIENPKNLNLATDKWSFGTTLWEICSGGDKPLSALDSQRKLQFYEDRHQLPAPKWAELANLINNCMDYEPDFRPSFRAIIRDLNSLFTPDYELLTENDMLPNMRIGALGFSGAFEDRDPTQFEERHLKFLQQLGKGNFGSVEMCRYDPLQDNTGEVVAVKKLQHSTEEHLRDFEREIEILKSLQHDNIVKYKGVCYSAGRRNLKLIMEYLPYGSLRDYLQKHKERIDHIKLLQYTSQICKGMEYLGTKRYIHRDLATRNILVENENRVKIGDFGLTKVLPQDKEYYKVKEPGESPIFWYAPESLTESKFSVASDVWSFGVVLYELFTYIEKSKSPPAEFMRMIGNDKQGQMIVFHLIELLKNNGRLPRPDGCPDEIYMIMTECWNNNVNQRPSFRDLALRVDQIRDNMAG

| SMILES | IC50 [1] | IC50 [2] |
| --- | --- | --- |
| CCN1CCN(Cc2cc(NC(=O)c3ccc(C)c(-c4cnc5nc(NC(=O)C6CC6)cn5c4)c3)cc(C(F)(F)F)c2)CC1 [Compound I-5, 3-(2-(cyclopropanecarboxamido)imidazo[1,2-a]pyrimidin-6-yl)-N-(3-((4-ethylpiperazin-1-yl)methyl)-5-(trifluoromethyl)phenyl)-4-methylbenzamide] | 9510 nM |  |
| CCN1CCN(Cc2cc(NC(=O)c3ccc(C)c(-c4ccn5nc(NC(=O)C6CC6)nc5c4)c3)cc(C(F)(F)F)c2)CC1 [Compound I-3, 3-(2-(cyclopropanecarboxamido)-[1,2,4]triazolo[1,5-a]pyridin-7-yl)-N-(3-((4-ethylpiperazin-1-yl)methyl)-5-(trifluoromethyl)phenyl)-4-methylbenzamide] | 981 nM |  |
| CCN1CCN(Cc2ccc(NC(=O)c3ccc(C)c(-c4ccc5nc(NC(=O)C6CC6)cn5n4)c3)cc2C(F)(F)F)CC1 [Compound I-15, 3-(2-(cyclopropanecarboxamido)imidazo[1,2-b]pyridazin-6-yl)-N-(4-((4-ethylpiperazin-1-yl)methyl)-3-(trifluoromethyl)phenyl)-4-methylbenzamide] | 1100 nM |  |
| CCN1CCN(Cc2cc(NC(=O)c3ccc(C)c(-c4ccc5[nH]c(NC(=O)C6CC6)nc5n4)c3)cc(C(F)(F)F)c2)CC1 [Compound I-27, 3-(2-(cyclopropanecarboxamido)-1H-imidazo[4,5-b]pyridin-5-yl)-N-(3-((4-ethylpiperazin-1-yl)methyl)-5-(trifluoromethyl)phenyl)-4-methylbenzamide] | 1530 nM |  |
| CCN1CCN(Cc2cc(C(=O)Nc3ccc(C)c(-c4ccc5nc(NC(=O)C6CC6)cn5c4)c3)cc(C(F)(F)F)c2)CC1 [Compound I-8, N-(3-(2-(cyclopropanecarboxamido)imidazo[1,2-a]pyridin-6-yl)-4-methylphenyl)-3-((4-ethylpiperazin-1-yl)methyl)-5-(trifluoromethyl)benzamide] | 824 nM |  |
| N#CC[C@H](C1CCCC1)n1cc(-c2ncnc3[nH]ccc23)cn1 [Ruxolitinib] |  | > 20 µM |
| CCN1CCN(Cc2cc(NC(=O)c3ccc(C)c(-c4ccc5nc(NC(=O)C6CC6)n(C)c5c4)c3)cc(C(F)(F)F)c2)CC1 [Compound I-25, 3-(2-(cyclopropanecarboxamido)-1-methyl-1H-benzo[d]imidazol-6-yl)-N-(3-((4-ethylpiperazin-1-yl)methyl)-5-(trifluoromethyl)phenyl)-4-methylbenzamide] | 7020 nM |  |
| CCN1CCN(Cc2cc(NC(=O)c3ccc(C)c(-c4ccc5c(c4)nc(NC(=O)C4CC4)n5C)c3)cc(C(F)(F)F)c2)CC1 [Compound I-26, 3-(2-(cyclopropanecarboxamido)-1-methyl-1H-benzo[d]imidazol-5-yl)-N-(3-((4-ethylpiperazin-1-yl)methyl)-5-(trifluoromethyl)phenyl)-4-methylbenzamide] | > 10000 nM |  |
| CCN1CCN(Cc2ccc(NC(=O)c3ccc(C)c(-c4ccc5nc(NC(=O)C6CC6)cn5c4)c3)cc2C(F)(F)F)CC1 [Compound I-7, 3-(2-(cyclopropanecarboxamido)imidazo[1,2-a]pyridin-6-yl)-N-(4-((4-ethylpiperazin-1-yl)methyl)-3-(trifluoromethyl)phenyl)-4-methylbenzamide] | 672 nM |  |
| CCN1CCN(Cc2cc(NC(=O)c3ccc(C)c(-c4ccc5nc(N)cn5n4)c3)cc(C(F)(F)F)c2)CC1 [Compound I-24, 3-(2-aminoimidazo [1,2-b]pyridazin-6-yl)-N-(3-((4-ethylpiperazin-1-yl)methyl)-5-(trifluoromethyl)phenyl)-4-methylbenzamide] | > 3330 nM |  |
| Cc1ccc(C(=O)Nc2cc(CN3CCNCC3)cc(C(F)(F)F)c2)cc1-c1ccc2nc(NC(=O)C3CC3)cn2n1 [Compound I-9, 3-(2-(cyclopropanecarboxamido)imidazo[1,2-b]pyridazin-6-yl)-4-methyl-N-(3-(piperazin-1-ylmethyl)-5-(trifluoromethyl)phenyl)benzamide] | 301 nM |  |

Now from value to compound, other results behind:

| IC50 [1] | SMILES | IC50 [2] |
| --- | --- | --- |
| 486 nM | CCN1CCN(Cc2cc(NC(=O)c3cnc(C)c(-c4ccc5nc(NC(=O)C6CC6)cn5n4)c3)cc(C(F)(F)F)c2)CC1 [Compound I-16, 5-(2-(cyclopropanecarboxamido)imidazo[1,2-b]pyridazin-6-yl)-N-(3-((4-ethylpiperazin-1-yl)methyl)-5-(trifluoromethyl)phenyl)-6-methylnicotinamide] |  |
| 8760 nM | CCN1CCN(Cc2cc(NC(=O)c3cc(-c4ccc5nc(NC(=O)C6CC6)cn5n4)c(C)cc3C)cc(C(F)(F)F)c2)CC1 [Compound I-19, 5-(2-(cyclopropanecarboxamido)imidazo[1,2-b]pyridazin-6-yl)-N-(3-((4-ethylpiperazin-1-yl)methyl)-5-(trifluoromethyl)phenyl)-2,4-dimethylbenzamide] |  |
| 2620 nM | CCS(=O)(=O)N1CCN(Cc2cc(NC(=O)c3ccc(C)c(-c4ccc5nc(NC(=O)C6CC6)cn5n4)c3)cc(C(F)(F)F)c2)CC1 [Compound I-11, 3-(2-(cyclopropanecarboxamido)imidazo[1,2-b]pyridazin-6-yl)-N-(3-((4-(ethylsulfonyl)piperazin-1-yl)methyl)-5-(trifluoromethyl)phenyl)-4-methylbenzamide] |  |
| 985 nM | CCN1CCN(Cc2cc(NC(=O)c3cc(-c4ccc5nc(NC(=O)C6CC6)cn5n4)c(C)cn3)cc(C(F)(F)F)c2)CC1 [Compound I-18, 4-(2-(cyclopropanecarboxamido)imidazo[1,2-b]pyridazin-6-yl)-N-(3-((4-ethylpiperazin-1-yl)methyl)-5-(trifluoromethyl)phenyl)-5-methylpicolinamide] |  |
| 934 nM | CCN1CCN(Cc2cc(NC(=O)c3cc(-c4ccc5nc(NC(=O)C6CC6)cn5n4)c(C)cc3F)cc(C(F)(F)F)c2)CC1 [Compound I-17, 5-(2-(cyclopropanecarboxamido)imidazo[1,2-b]pyridazin-6-yl)-N-(3-((4-ethylpiperazin-1-yl)methyl)-5-(trifluoromethyl)phenyl)-2-fluoro-4-methylbenzamide] |  |
| 5120 nM | CCN1CCN(Cc2cc(NC(=O)c3ccc(C#N)c(-c4ccc5nc(NC(=O)C6CC6)cn5n4)c3)cc(C(F)(F)F)c2)CC1 [Compound I-23, 4-cyano-3-(2-(cyclopropanecarboxamido)imidazo[1,2-b]pyridazin-6-yl)-N-(3-((4-ethylpiperazin-1-yl)methyl)-5-(trifluoromethyl)phenyl)benzamide] |  |
| 399 nM | CCc1ccc(C(=O)Nc2cc(CN3CCN(CC)CC3)cc(C(F)(F)F)c2)cc1-c1ccc2nc(NC(=O)C3CC3)cn2n1 [Compound I-20, 3-(2-(cyclopropanecarboxamido)imidazo[1,2-b]pyridazin-6-yl)-4-ethyl-N-(3-((4-ethylpiperazin-1-yl)methyl)-5-(trifluoromethyl)phenyl)benzamide] |  |
| 1350 nM | CC(=O)N1CCN(Cc2cc(NC(=O)c3ccc(C)c(-c4ccc5nc(NC(=O)C6CC6)cn5n4)c3)cc(C(F)(F)F)c2)CC1 [Compound I-10, N-(3-((4-acetylpiperazin-1-yl)methyl)-5-(trifluoromethyl)phenyl)-3-(2-(cyclopropanecarboxamido)imidazo[1,2-b]pyridazin-6-yl)-4-methylbenzamide] |  |
| > 10000 nM | CCN1CCN(Cc2cc(NC(=O)c3cc(-c4ccc5nc(NC(=O)C6CC6)cn5n4)c(C)nc3O)cc(C(F)(F)F)c2)CC1 [Compound I-21, 5-(2-(cyclopropanecarboxamido)imidazo[1,2-b]pyridazin-6-yl)-N-(3-((4-ethylpiperazin-1-yl)methyl)-5-(trifluoromethyl)phenyl)-2-hydroxy-6-methylnicotinamide] |  |
| 772 nM | Cc1ccc(C(=O)Nc2cc(CN3CCN(CC4CC4)CC3)cc(C(F)(F)F)c2)cc1-c1ccc2nc(NC(=O)C3CC3)cn2n1 [Compound I-14, 3-(2-(cyclopropanecarboxamido)imidazo[1,2-b]pyridazin-6-yl)-N-(3-((4-(cyclopropylmethyl)piperazin-1-yl)methyl)-5-(trifluoromethyl)phenyl)-4-methylbenzamide] |  |
| 1820 nM | COCCN1CCN(Cc2cc(NC(=O)c3ccc(C)c(-c4ccc5nc(NC(=O)C6CC6)cn5n4)c3)cc(C(F)(F)F)c2)CC1 [Compound I-12, 3-(2-(cyclopropanecarboxamido)imidazo[1,2-b]pyridazin-6-yl)-N-(3-((4-(2-methoxyethyl)piperazin-1-yl)methyl)-5-(trifluoromethyl)phenyl)-4-methylbenzamide] |  |
| 950 nM | CCN1CCN(Cc2cc(NC(=O)c3ccc(C)c(-c4cn5cc(NC(=O)C6CC6)nc5cn4)c3)cc(C(F)(F)F)c2)CC1 [Compound I-4, 3-(2-(cyclopropanecarboxamido)imidazo[1,2-a]pyrazin-6-yl)-N-(3-((4-ethylpiperazin-1-yl)methyl)-5-(trifluoromethyl)phenyl)-4-methylbenzamide] |  |
| 508 nM | CCN1CCN(Cc2cc(NC(=O)c3ccc(C)c(-c4ccc5nc(NC(=O)C6CC6)nn5c4)c3)cc(C(F)(F)F)c2)CC1 [Compound I-1, 3-(2-(cyclopropanecarboxamido)-[1,2,4]triazolo[1,5-a]pyridin-6-yl)-N-(3-((4-ethylpiperazin-1-yl)methyl)-5-(trifluoromethyl)phenyl)-4-methylbenzamide] |  |
| 3180 nM | CCOC(=O)N1CCN(Cc2cc(NC(=O)c3ccc(C)c(-c4ccc5nc(NC(=O)C6CC6)cn5n4)c3)cc(C(F)(F)F)c2)CC1 [Compound I-13, ethyl 4-(3-(3-(2-(cyclopropanecarboxamido)imidazo[1,2-b]pyridazin-6-yl)-4-methylbenzamido)-5-(trifluoromethyl)benzyl)piperazine-1-carboxylate] |  |
| 1900 nM | CCN1CCN(Cc2cc(NC(=O)c3ccc(C(F)(F)F)c(-c4ccc5nc(NC(=O)C6CC6)cn5n4)c3)cc(C(F)(F)F)c2)CC1 [Compound I-22, 3-(2-(cyclopropanecarboxamido)imidazo[1,2-b]pyridazin-6-yl)-N-(3-((4-ethylpiperazin-1-yl)methyl)-5-(trifluoromethyl)phenyl)-4-(trifluoromethyl)benzamide] |  |
